Data: US12240828B2, “Heteroaromatic compounds as vanin inhibitors” (Boehringer Ingelheim International GmbH, priority 2018, dated 2025)

Columns and labels:
[1] = molecular target: T1, FLAG-tagged Vanin-1 (AA 22-493, T26I) (Homo sapiens, UniProt O95497, T26I); assay: Vanin-1 enzymatic assay; assay type: biochemical; settings: 0.1 nM Vanin-1, 3 μM D-pantethine, pantothenic acid formation by RapidFire MS; geometric mean if multiple measurements; read-out: VNN-1 IC50
T1 construct: FLAG-tagged Vanin-1 (AA 22-493, T26I, produced internally); FLAG; made in house
T1 sequence (O95497 22-493 T26I): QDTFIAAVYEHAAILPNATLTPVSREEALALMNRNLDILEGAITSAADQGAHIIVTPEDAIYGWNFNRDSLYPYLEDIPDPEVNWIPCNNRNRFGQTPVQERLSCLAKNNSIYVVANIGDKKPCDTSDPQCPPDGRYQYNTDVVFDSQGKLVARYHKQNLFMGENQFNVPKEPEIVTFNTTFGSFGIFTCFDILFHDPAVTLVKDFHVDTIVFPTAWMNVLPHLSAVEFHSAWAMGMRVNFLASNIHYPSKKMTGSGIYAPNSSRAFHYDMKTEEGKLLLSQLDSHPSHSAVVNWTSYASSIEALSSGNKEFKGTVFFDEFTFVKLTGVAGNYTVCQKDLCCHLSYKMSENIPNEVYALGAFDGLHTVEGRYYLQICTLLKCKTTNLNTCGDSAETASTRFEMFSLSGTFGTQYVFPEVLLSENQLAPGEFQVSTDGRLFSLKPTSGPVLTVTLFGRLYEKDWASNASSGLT
Method: The test compounds are dissolved in 100% DMSO at a concentration of 10 mM and in a first step diluted in DMSO to a concentration of 5 mM, followed by serial dilution steps in 100% DMSO. Dilution factor and number of dilution steps may vary according to needs. Typically 8 different concentrations by 1:5 dilutions are prepared, a further intermediate dilutions of the substances is carried out with assay buffer resulting in 1% final DMSO concentration in the assay.
0.1 nM of FLAG-tagged Vanin-1 (AA 22-493, T26I, produced internally) and test compounds are incubated at room temperature for 20 minutes in assay buffer (1 mM DTT, 0.0025% Brij-35, 50 mM HEPES, pH7.5). D-Pantethine (Sigma, Cat #P2125-5G) in assay buffer is added (final concentration 3 μM) and incubated for additional 30 minutes at room temperature. Total assay volume typically is 40 μl but might be adjusted according to needs. Reaction is stopped by adding equal volume of stop solution as the reaction mixture to reach 100 nM HD-pantothenic acid (as an internal standard) and 1% TFA. Assay plates are centrifuged for 2 minutes and the formation of pantothenic acid is detected by RapidFire Mass Spectrometry (mobile phase A: 0.1% formic acid and 0.01% trifluoroacetic acid in water; mobile phase B: 47.5% acetonitrile, 47.5% methanol, 0.1% formic acid and 0.01% trifluoroacetic acid in water) using a C18, 12 μL cartridge (Agilent Cat #G9205A).
The values given in Table I result from measurements of one or more samples. In case of multiple measurements the geometric mean values are given.

Pantetheinase (vanin) = assay: Human Whole Blood assay; assay type: cell-based; settings: pantethine substrate, pantothenic acid formation by RapidFire MS, read-out: HWB IC50
Method: Human Whole Blood assay: Pantetheinase (vanin) converts panteheine into pantothenic acid and cysteamine. Accordingly, in the described protocol vanin activity is quantified by formation of pantothenic acid after pantetheine supplementation via pantethine. The assay is applicable to identify vanin inhibitors. Compound stocks are dissolved in DMSO at 10 mM. Further dilutions are performed in RPMI 1640 medium (Gibco, #A-10491-01) and final concentrations in the assay are 0.032 nM-500 nM.
Human blood is drawn into a blood bag (1% heparin, 50 I.E./mL). Blood is aliquoted into cavities of 96-deep-well plates at 290 μL and mixed with 10 μL compound solution or vehicle (30 sec at 1400 rpm on a shaker). Equilibration follows at room temperature, 250 rpm and for 30 min. The assay is starts by adding 10 μL of substrate solution (20 μM pantethine in 1 mM DTT, 0.0025% Brij-35, 50 mM HEPES, pH7.5) to each well, except for some blank wells which receive […] substrate buffer (1 mM DTT, 0.0025% Brij-35, 50 mM HEPES, pH7.5) only. Samples are thoroughly shaken (30 sec, 1400 rpm) and reaction is allowed to take place at room temperature, 250 rpm and for 5 min. The reaction is stopped by addition of a vanin tool inhibitor in excess (BI-1 total conc. 10 μM). Centrifugation of the plate follows at 4° C., 665 G for 10 min. Then the blood plasma samples (100 μL) are transferred into another 96-deep-well plate and proteins are precipitated (5 min on ice) by adding 100 μL of ice cold precipitation solution (1 μM labelled pantothenic acid (di-β-alanine-13C6,15N2 calcium salt, Sigma, #705837) in acetonitrile). Afterwards the plate is centrifuged (4° C., 3220 G, 10 min) and supernatants (50 μL) are collected into another 96-deep-well plate and mixed (10 sec, 1400 rpm) with 150 μL ice cold formic acid (0.1%, Carl Roth GmbH+Co.KG, #CP03.1). The formation of pantothenic acid is detected by RapidFire Mass Spectrometry. A TripleQuad 6500+ (ABSciex, Germany) is equipped with an LC-1290 system, a RapidFire autosampler (Agilent, Germany) and a C18 cartridge Type C 12 μL (Agilent Cat #G9526-80000). Mobile phase A is consisting of 0.09% formic acid and 0.01% trifluoroacetic acid in water and mobile phase B of 0.09% formic acid and 0.01% trifluoroacetic acid in acetonitrile/methanol/water=47.5/47.5/5.

IC50 [1] | IC50 (Pantetheinase (vanin)) | SMILES
0.12 nM | 1.69 nM | CN(C(=O)C1CC1)[C@H]1CCN(C(=O)c2ccc(NCc3cccnc3)nc2)C1 [Example 1.8]
0.12 nM | 1.9 nM | Cc1ccncc1CNc1ccc(C(=O)N2CC[C@H](N(C)C(=O)C3(C)CCC3)C2)cn1 [Example 1.9]
0.14 nM | 1.24 nM | COc1ccncc1CNc1ccc(C(=O)N2CC[C@H](N(C)C(=O)C3CC3)C2)cn1 [Example 1.10]
0.16 nM | 6.13 nM | CC(=O)N(C)[C@H]1CCN(C(=O)c2ccc(N[C@@H](C)c3cccc(C#N)c3)nc2)C1 [Example 1.12]
0.18 nM | 8.7 nM | CN(C(=O)C1(C)CCC1)[C@H]1CCN(C(=O)c2ccc(NCc3cccnc3)nc2)C1 [Example 1.14]
0.21 nM | 1.52 nM | Cc1ncccc1CNc1ccc(C(=O)N2CC[C@H](N(C)C(=O)C3CC3)C2)cn1 [Example 1.15]
0.21 nM | 5.59 nM | CC(=O)N(C)[C@H]1CCN(C(=O)c2ccc(NC3(c4cncc(C(F)(F)F)c4)CC3)nc2)C1 [Example 1.17]
0.22 nM | 1.77 nM | Cc1ncccc1CNc1ccc(C(=O)N2CC[C@H](N(C)C(=O)C3(C)CCC3)C2)cn1 [Example 1.18]
0.22 nM | 2.63 nM | CC(=O)N(C)[C@H]1CCN(C(=O)c2ccc(N[C@@H](C)c3cccc(S(N)(=O)=O)c3)nc2)C1 [Example 1.19]
0.23 nM | 4.74 nM | CC(=O)N(C)[C@H]1CCN(C(=O)c2ccc(NC3(c4ccc(C(F)(F)F)nc4)CC3)nc2)C1 [Example 1.20]
0.24 nM | 0.8 nM | CNS(=O)(=O)c1cccc(C(C)Nc2ccc(C(=O)N3CC[C@H](N(C)C(C)=O)C3)cn2)c1 (some centres unmarked) [Example 1.21]
0.24 nM | 2.51 nM | COc1ccncc1CNc1ccc(C(=O)N2CC[C@H](N(C)C(=O)C3(C)CCC3)C2)cn1 [Example 1.22]
0.26 nM | 5.21 nM | CNS(=O)(=O)c1cccc([C@H](C)Nc2ccc(C(=O)N3CC[C@H](N(C)C(C)=O)C3)cn2)c1 [Example 1.23]
0.27 nM | 1.44 nM | CN(C(=O)C1CC1)[C@H]1CCN(C(=O)c2ccc(NCc3ccc(N)nc3)nc2)C1 [Example 1.24]
0.29 nM | 1.98 nM | CN(C(=O)C1(C)CCC1)[C@H]1CCN(C(=O)c2ccc(NC3CCc4[nH]ncc43)nc2)C1 (some centres unmarked) [Example 1.26]
0.3 nM | 4.39 nM | CC(=O)N(C)[C@H]1CCN(C(=O)c2ccc(NC(C)c3cccc(S(N)(=O)=O)c3)nc2)C1 (some centres unmarked) [Example 1.27]
0.4 nM | 3.28 nM | C[C@@H](Nc1ccc(C(=O)N2CC[C@H](N(C)C(=O)C3(C)CCC3)C2)cn1)c1cnccn1 [Example 1.30]
0.44 nM | 2.63 nM | CN(C(=O)C1(C)CCC1)[C@H]1CCN(C(=O)c2ccc(NCc3ccc(N)nc3)nc2)C1 [Example 1.31]

IC50 [1] | IC50 (Pantetheinase (vanin)) | SMILES
0.46 nM | 2.05 nM | CN(C(=O)C1CC1)[C@H]1CCN(C(=O)c2ccc(NCc3cnccc3C(F)(F)F)nc2)C1 [Example 1.33]
0.61 nM | 1.07 nM | CC(=O)N(C)[C@H]1CCN(C(=O)c2ccc(NC3CCc4ncccc43)nc2)C1 (some centres unmarked) [Example 1.37]
0.65 nM | 5.19 nM | CN(C(=O)C1CC1)[C@H]1CCN(C(=O)c2ccc(NCc3cncc(F)c3)nc2)C1 [Example 1.38]
0.67 nM | 2.1 nM | CC(=O)N(C)[C@H]1CCN(C(=O)c2ccc(NC(C)c3cccc(C#N)c3)nc2)C1 (some centres unmarked) [Example 1.40]
0.85 nM | 9.88 nM | CC(=O)N(C)[C@H]1CCN(C(=O)c2ccc(NCc3cccs3)nc2)C1 [Example 1.42]
0.86 nM | 3.24 nM | CC(=O)N(C)[C@H]1CCN(C(=O)c2ccc(NCc3cncc(F)c3)nc2)C1 [Example 1.43]
0.91 nM | 7.03 nM | CN(C)c1ccc(CNc2ccc(C(=O)N3CC[C@H](N(C)C(=O)C4CC4)C3)cn2)cn1 [Example 1.44]
0.97 nM | 5.93 nM | COc1ccc(CNc2ccc(C(=O)N3CC[C@H](N(C)C(=O)C4CC4)C3)cn2)cn1 [Example 1.47]
0.06 nM | 3.57 nM | CN(C(=O)C1CC1)[C@H]1CCN(C(=O)c2ccc(NC(C)(C)c3ccccc3)nc2)C1 [Example 2.1, N-Methyl-N-[(3S)-1-{6-[(2-phenylpropan-2-yl)amino]pyridine-3-carbonyl}pyrrolidin-3-yl]cyclopropanecarboxamide]
0.07 nM | 4.49 nM | CN(C(=O)C1CCC1)[C@H]1CCN(C(=O)c2ccc(NC(C)(C)c3ccccc3)nc2)C1 [Example 2.2]
0.07 nM | 1.33 nM | CN(C(=O)C1CCC1)[C@H]1CCN(C(=O)c2ccc(NCc3cccnc3)nc2)C1 [Example 3.1, N-Methyl-N-[(3S)-1-(6-{[(pyridin-3-yl)methyl]amino}pyridine-3-carbonyl)pyrrolidin-3-yl]cyclobutanecarboxamide]
0.19 nM | 1.94 nM | C[C@H](Nc1ccc(C(=O)N2CCC(C)(C#N)C2)cn1)c1ccccc1 (some centres unmarked) [Example 3.2]
0.24 nM | 1.6 nM | CC1(C#N)CCN(C(=O)c2ccc(NCc3cccnc3)nc2)C1 (centres unmarked) [Example 3.3]
0.68 nM | 5.88 nM | CC(=O)N(C)[C@H]1CCN(C(=O)c2ccc(NCc3ccc(Cl)cc3)nc2)C1 [Example 4.1, N-[(3S)-1-(6-{[(4-Chlorophenyl)methyl]amino}pyridine-3-carbonyl)pyrrolidin-3-yl]-N-methylacetamide]
0.1 nM | 2.43 nM | CC(C)(Nc1ccc(C(=O)N2CC[C@H](N3CCCC3=O)C2)cn1)c1ccccc1 [Example 4.2]
0.12 nM | 2.32 nM | CC(C)(Nc1ccc(C(=O)N2CC[C@H](N3CCOC3=O)C2)cn1)c1ccccc1 [Example 4.3]
0.12 nM | 1.34 nM | CC(=O)N(C)[C@H]1CCN(C(=O)c2ccc(NC(C)(C)c3ccccc3)nc2)C1 [Example 4.4]
0.14 nM | 1.27 nM | CN(C(=O)C1(C#N)CC1)[C@H]1CCN(C(=O)c2ccc(NC(C)(C)c3ccccc3)nc2)C1 [Example 4.5]

SMILES | IC50 [1] | IC50 (Pantetheinase (vanin))
CC(=O)N(C)[C@H]1CCN(C(=O)c2ccc(N[C@@H](C)c3ccc(Cl)nc3)nc2)C1 [Example 1.11, N-[(3S)-1-(6-{[(1S)-1-(6-chloropyridin-3-yl)ethyl]-amino}pyridine-3-carbonyl)pyrrolidin-3-yl]-N-methylacetamide] | 0.15 nM | 1.9 nM
